Assay results from US20010006697A1, “Composition and method for producing low cholesterol eggs” (priority 1997, published 2001).
Entries after “also recorded” stand apart in the source; their conditions may differ. Marks after values point to notes of the source that are not given here.

Tests used:
[1] = tested on: laying hens; assay: Yolk cholesterol contents of eggs from statin-treated laying hens; type: in vivo, White Leghorn hens; details: for less total yolk cholesterol than control eggs: week 2, per yolk
Protocol: Agric. […] Hens were treated as described in Example 1. […] The eggs were hard-cooked, and the yolks were separated, weighed, and crumbled. […] Agric. […] Egg homogenate filtrates were analyzed for cholesterol as described in Rudel, L. L. and Morris, M. D., J. Lipid Res. 14:364-366 (1973).

[2] = tested on: laying hens; assay: Egg production, egg weights and yolk weights of statin-treated laying hens; type: in vivo, White Leghorn hens
Protocol: Hens were treated as described in Example 1. Egg yolk was weighed as outlined in Example 2.

[3] = tested on: apolipoprotein B (apoB) mRNA; assay: Northern blot of liver mRNA: apoB; type: in vivo, White Leghorn hens; details: normalized by 18S rRNA; day 35
Source text: Endocrinol. […] Endocrinol.

[4] = tested on: laying hens; assay: Liver cholesterol content; details: day 35
[5] = Liver weight of statin-treated laying hens; details: day 35
[6] = 0.03% of diet, Week 1, listed as atorvastatin
[7] = 0.06% of diet, Week 1, listed as atorvastatin
[8] = 0.06% of diet, week 5 (maximal reduction for simvastatin, lovastatin)
[9] = 0.03% of diet, Overall (weeks 1-5)
[10] = 0.06% of diet, Overall (weeks 1-5)

Compound: CC(C)c1c(C(=O)Nc2ccccc2)c(-c2ccccc2)c(-c2ccc(F)cc2)n1CC[C@@H](O)C[C@@H](O)CC(=O)O [Atorvastatin, (ΔR,δR)-2-(p-fluorophenyl)-β,δ-dihydroxy-5-isopropyl-3-phenyl-4-(phenylcarbamoyl)pyrrole-1-heptanoic acid]
- Yolk cholesterol content, mg cholesterol/g yolk ([1]; 0.03% of diet, Week 0): 11.4 ± 0.3^a mg cholesterol/g yolk
- Yolk cholesterol content, mg cholesterol/yolk ([1]; 0.03% of diet, Week 0): 203.2 ± 7.7^a mg cholesterol/yolk
- Yolk cholesterol content, mg cholesterol/g yolk ([1]; 0.03% of diet, Week 1): 9.4 ± 0.3^c mg cholesterol/g yolk
- Yolk cholesterol content, mg cholesterol/yolk ([1]; 0.03% of diet, Week 1): 161.7 ± 5.5^b,c mg cholesterol/yolk
- Yolk cholesterol content, mg cholesterol/g yolk [1, 6]: 9.4 mg cholesterol/g yolk
- Yolk cholesterol content, mg cholesterol/yolk [1, 6]: 161.7 mg cholesterol/yolk
- Yolk cholesterol content, mg cholesterol/g yolk ([1]; 0.03% of diet, Week 2): 8.7 ± 0.2^e mg cholesterol/g yolk
- Yolk cholesterol content, mg cholesterol/g yolk ([1]; 0.03% of diet, Week 3): 8.6 ± 0.2^e mg cholesterol/g yolk
- Yolk cholesterol content, mg cholesterol/yolk ([1]; 0.03% of diet, Week 3): 143.7 ± 3.3^c mg cholesterol/yolk
- Yolk cholesterol content, mg cholesterol/g yolk ([1]; 0.03% of diet, Week 4): 8.3 ± 0.1^d mg cholesterol/g yolk
- Yolk cholesterol content, mg cholesterol/yolk ([1]; 0.03% of diet, Week 4): 134.4 ± 2.2^c mg cholesterol/yolk
- Yolk cholesterol content, mg cholesterol/g yolk ([1]; 0.03% of diet, Week 5): 8.2 ± 0.2^d mg cholesterol/g yolk
- Yolk cholesterol content, mg cholesterol/yolk ([1]; 0.03% of diet, Week 5): 137.2 ± 3.8^d mg cholesterol/yolk
- Yolk cholesterol content, mg cholesterol/yolk ([1]; 0.03% of diet, Week 5, listed as atorvastatin): 137.2 mg cholesterol/yolk
- Yolk cholesterol content, mg cholesterol/g yolk ([1]; 0.06% of diet, Week 0): 11.3 ± 0.3^a mg cholesterol/g yolk
- Yolk cholesterol content, mg cholesterol/yolk ([1]; 0.06% of diet, Week 0): 191.9 ± 7.3^a mg cholesterol/yolk
- Yolk cholesterol content, mg cholesterol/g yolk ([1]; 0.06% of diet, Week 1): 9.3 ± 0.2^c mg cholesterol/g yolk
- Yolk cholesterol content, mg cholesterol/yolk ([1]; 0.06% of diet, Week 1): 149.7 ± 3.8^c mg cholesterol/yolk
- Yolk cholesterol content, mg cholesterol/g yolk [1, 7]: 9.3 mg cholesterol/g yolk
- Yolk cholesterol content, mg cholesterol/yolk [1, 7]: 149.7 mg cholesterol/yolk
- Yolk cholesterol content, mg cholesterol/g yolk ([1]; 0.06% of diet, Week 2): 7.8 ± 0.3^f mg cholesterol/g yolk
- Yolk cholesterol content, mg cholesterol/yolk ([1]; 0.06% of diet, Week 2): 105.3 ± 4.3^d mg cholesterol/yolk
- Yolk cholesterol content, mg cholesterol/yolk ([1]; 0.06% of diet, Week 2, listed as atorvastatin): 105.3 mg cholesterol/yolk
- Yolk cholesterol content, mg cholesterol/g yolk ([1]; 0.06% of diet, Week 3): 7.5 ± 0.1^f mg cholesterol/g yolk
- Yolk cholesterol content, mg cholesterol/yolk ([1]; 0.06% of diet, Week 3): 104.0 ± 3.7^d mg cholesterol/yolk
- Yolk cholesterol content, mg cholesterol/g yolk ([1]; 0.06% of diet, Week 4): 7.5 ± 0.1^e mg cholesterol/g yolk
- Yolk cholesterol content, mg cholesterol/yolk ([1]; 0.06% of diet, Week 4): 104.2 ± 2.3^d mg cholesterol/yolk
- Yolk cholesterol content, mg cholesterol/g yolk ([1]; 0.06% of diet, Week 5): 7.6 ± 0.2^d mg cholesterol/g yolk
- yolk cholesterol reduction from control on a per yolk (egg) basis [1, 8]: 46%
- yolk cholesterol reduction from control per g of yolk (mg/g basis) [1, 8]: 35%
- less total yolk cholesterol than control eggs ([1]; high dose (0.06%)): 45%
- less total yolk cholesterol than control eggs ([1]; low dose (0.03%)): 27%
- Egg weight, g [2, 9]: 61.3 ± 1.0^a,b (132) g
- Hen-day egg production, % [2, 9]: 75.4 ± 4.1^b,c (132) %
- Yolk weight, g [2, 9]: 16.6 ± 0.1^a (25) g
- Egg weight, g ([2]; 0.03% of diet, Week 1): 63.0 ± 0.7^a g
- Hen-day egg production, % ([2]; 0.03% of diet, Week 1): 82.9 ± 1.8^c,d %
- Yolk weight, g ([2]; 0.03% of diet, Week 1): 17.2 ± 0.3^a g
- Egg weight, g ([2]; 0.03% of diet, Week 2): 61.2 ± 0.8^c,d g
- Hen-day egg production, % ([2]; 0.03% of diet, Week 2): 68.6 ± 1.0^c %
- Yolk weight, g ([2]; 0.03% of diet, Week 2): 16.2 ± 0.3^a g
- Egg weight, g ([2]; 0.03% of diet, Week 3): 60.5 ± 0.8^c g
- Hen-day egg production, % ([2]; 0.03% of diet, Week 3): 80.0 ± 2.0^b %
- Yolk weight, g ([2]; 0.03% of diet, Week 3): 16.7 ± 0.4^a g
- Hen-day egg production, % ([2]; 0.03% of diet, Week 4): 77.1 ± 1.2^c %
- Yolk weight, g ([2]; 0.03% of diet, Week 4): 16.2 ± 0.2^b g
- Egg weight, g ([2]; 0.03% of diet, Week 5): 61.0 ± 0.7^b g
- Hen-day egg production, % ([2]; 0.03% of diet, Week 5): 77.1 ± 1.2^c,d %
- Yolk weight, g ([2]; 0.03% of diet, Week 5): 16.6 ± 0.3^a g
- Egg weight, g [2, 10]: 58.9 ± 0.9^b (121) g
- Hen-day egg production, % [2, 10]: 69.1 ± 3.5^c (121) %
- Yolk weight, g [2, 10]: 14.3 ± 0.2^b (25) g
- Egg weight, g ([2]; 0.06% of diet, Week 1): 63.6 ± 0.8^a g
- Hen-day egg production, % ([2]; 0.06% of diet, Week 1): 82.9 ± 1.0^c,d %
- Yolk weight, g ([2]; 0.06% of diet, Week 1): 16.1 ± 0.3^a g
- Egg weight, g ([2]; 0.06% of diet, Week 2): 59.5 ± 1.0^d g
- Hen-day egg production, % ([2]; 0.06% of diet, Week 2): 60.0 ± 1.8^d %
- Yolk weight, g ([2]; 0.06% of diet, Week 2): 13.4 ± 0.3^b g
- Egg weight, g ([2]; 0.06% of diet, Week 3): 56.9 ± 0.7^d g
- Hen-day egg production, % ([2]; 0.06% of diet, Week 3): 68.6 ± 1.8^c %
- Yolk weight, g ([2]; 0.06% of diet, Week 3): 13.9 ± 0.5^b g
- Egg weight, g ([2]; 0.06% of diet, Week 4): 56.8 ± 0.7^e g
- Hen-day egg production, % ([2]; 0.06% of diet, Week 4): 68.6 ± 1.8^d %
- Yolk weight, g ([2]; 0.06% of diet, Week 4): 13.9 ± 0.3^c g
- Egg weight, g ([2]; 0.06% of diet, Week 5): 57.8 ± 0.7^c g
- Hen-day egg production, % ([2]; 0.06% of diet, Week 5): 74.3 ± 1.0^d %
- Yolk weight, g ([2]; 0.06% of diet, Week 5): 14.2 ± 0.4^b g
- decrease in yolk weight ([2]; 0.06% of diet, Week 5): 19%
- hepatic apoB mRNA, linear contrasts (P≦0.05) [3]: atorvastatin>lovastatin; also recorded: atorvastatin>simvastatin
- Liver Cholesterol mg/g liver ([4]; 0.03% of diet): 2.8 ± 0.05^c mg/g liver
- Liver Cholesterol mg/liver ([4]; 0.03% of diet): 87.4 ± 2.2^a mg/liver
- Liver Cholesterol mg/g liver ([4]; 0.06% of diet): 2.5 ± 0.07^d mg/g liver
- Liver Cholesterol mg/liver ([4]; 0.06% of diet): 89.7 ± 5.2^a mg/liver
- Liver Weight g ([5]; 0.03% of diet): 30.9 ± 1.2^b g
- Liver Weight g/100 g BW ([5]; 0.03% of diet): 1.82 ± 0.05^a,b g/100 g BW
- Liver Weight g ([5]; 0.06% of diet): 35.3 ± 2.3^a g
- Liver Weight g/100 g BW ([5]; 0.06% of diet): 2.02 ± 0.09^a g/100 g BW
